Data taken from publication PMC11891579, “Fluorescent PyrAte-(S)-citalopram conjugates enable imaging of the serotonin transporter in living tissue” (Chemical Science, 2025).
“Also recorded” adds a separate entry of the source.

Assays:
[1] = photophysical properties in aqueous media; type: physicochemical; settings: PBS:DMSO 99:1 v/v; for Quantum yield: C153 as internal standard
Excerpt: Table S5. Photophysical properties of PyrAte-(S)-citalopram conjugates in aqueous media (PBS:DMSO
99:1 v/v). C153 (coumarin 153) was used as internal standard for the measurement of quantum yield.
Compound λmax (nm) λEm (nm) Stokes shift ε at λmax Quantum Brightness (at λmax,
(nm) (M-1 cm-1) yield 103 M-1 cm-1)

YhSERT = biological target: T1, YhSERT (Homo sapiens, UniProt P31645); experiment: radioligand uptake inhibition assay ([3H]5HT); type: cell-based; settings: for IC50: HEK293 stably expressing YhSERT, 100 nM [3H]5HT, mean and SD, N = 3-6, read-out: IC50, uptake inhibition at SERT (YhSERT); for selectivity to SERT vs. DAT / selectivity to SERT vs. NET / selectivity to SERT vs. OCT3: from uptake inhibition IC50; for decrease of SERT affinity (IC50) compared to (S)-citalopram: uptake inhibition IC50; for Hill coefficient nH at SERT: uptake inhibition curve
T1 construct: expressed in transfected cells
Protocol: (§1) 1. Biological characterization
(§2) 1.1. Experimental methods
(§3) Buffer and solution compositions (in mM) are as follows:
(§4) Krebs-HEPES buffer (KHB): 120 NaCl, 3 KCl, 2 CaCl2, 2 MgCl2, 20 glucose, 10 HEPES NaOH, pH = 7.3 – 7.4. […]
(§5) 10 mM glucose, 1.25 mM NaH2PO4, pH = 7.4 (oxygenated with 95% O2, 5% CO2).
(§6) Human embryonic kidney 293 cells (HEK293) stably expressing the mCherry-tagged, YFP-tagged, and GFP-tagged human isoforms of SERT (mCherry-SERT, YhSERT, GhSERT), DAT (YhDAT), NET (hNET), and OCT3 (YhOCT3) were cultured in Dulbecco's modified Eagle's medium (DMEM) with high glucose (4.5 g/L) and l-glutamine (584 mg/L), supplemented with 10% fetal calf serum (FCS), 100 units/mL penicillin and 100 µg/mL streptomycin. The cells were cultured in a humidified atmosphere (37 °C, 5% CO2). Geneticin (50 µg/mL), Blasticidin (6 µg/mL), and Zeocin® (150 µg/mL) were added to maintain the selection pressure for the stable cell lines. Cells were typically seeded 24 hours prior to the experiments.
(§7) For uptake inhibition experiments, cells were seeded at 3.6 x 10^4 cells/0.2 mL into 96-well plates coated […]
(§8) with poly-d-lysine (PDL). […]
(§9) For uptake inhibition experiments, the cell medium was aspirated and the cells were washed once with 0.2 mL/well KHB at room temperature. The cells were pre-incubated with increasing concentrations of the substance of interest, diluted in KHB (0.05 mL/well). The pre-incubation solution was replaced with 0.05 mL/well KHB solution still containing the substance of interest and additionally the tritiated substrate (100 nM [3H]DA for YhDAT; 100 nM [3H]5HT for YhSERT; 20 nM and 50 nM [3H]MPP+ for hNET and YhOCT3), after 6 minutes (YhSERT), 5 minutes (YhDAT, hNET), or 10 minutes (YhOCT3). Substrate uptake was stopped after one minute (for [3H]DA and [3H]5HT), three minutes, or […]
(§10) ten minutes (for [3H]MPP+), by exchange of the substrate-containing buffer with 0.2 mL ice-cold KHB.
(§11) The KHB was aspirated immediately. Cells were lysed and prepared for [3H] content analysis by adding 0.2 mL Ultima Gold™ XR liquid scintillation cocktail. Measurements were performed in a 1450 MicroBeta microplate liquid scintillation counter. Non-specific uptake was determined in the presence of 30 µM paroxetine (for YhSERT), 50 µM GBR12909 (for YhDAT and hNET), or 100 µM decynium-22 (for YhOCT3). […]

hNET = biological target: T2, hNET (Homo sapiens, UniProt P23975); experiment: radioligand uptake inhibition assay ([3H]MPP+); type: cell-based; settings: for IC50: HEK293 stably expressing hNET, 20 nM [3H]MPP+, mean and SD, N = 3-6, read-out: IC50, uptake inhibition at NET (hNET); for Hill coefficient nH at NET: uptake inhibition curve
T2 construct: expressed in transfected cells
Protocol: as §1, §2, §3, §4, §5, §6, §7, §8, §9, §10, §11

[2] = biological target: T3, mCherry-SERT-expressing HEK293 cells (Homo sapiens, UniProt P31645); experiment: confocal microscopy of membrane staining; type: cell-based; settings: for membrane staining of mCherry-SERT HEK293 cells: 20 nM
T3 construct: expressed in transfected cells
Protocol: Prior to imaging, cell culture medium was replaced with pre-warmed KHB. HEK293 cells expressing mCherry-SERT were imaged using a Nikon A1R laser scanning confocal microscope equipped with a GaAsP detector, using a 60× oil-immersion objective. PyrAtes dissolved in DMSO were diluted in KHB (0.1% v/v) to make solutions with the desired final concentration (20 nM, 100 nM), which were added to each well containing the cells. To test specific binding, cells were pre-incubated with 10 – 30 µM paroxetine for 10 minutes. PyrAtes were excited using a 405 nm laser, and its fluorescent signals collected using 525/50 nm emission filters; mCherry was excited using a 561 nm laser, and fluorescence was collected using 595/50 nm emission filters. Images were captured prior to and at specific time points after addition of the PyrAte compounds using NIS-Elements software. […]
Cells were voltage-clamped (−60 mV) and continuously superfused with a physiological external solution containing 140mM NaCl, 2.5 mM CaCl2,2mM MgCl2, 20mM glucose and 10mM HEPES, pH= 7.4. Micropipettes were made from borosilicate glass capillaries with a resistance ranging from 2.5 – 6 MΩ using a P-97 micropipette puller (Sutter Instrument), which were then filled with an internal solution containing 133mM K-gluconate, 6mM NaCl, 1mM CaCl2, 0.7 mM MgCl2, 10mM HEPES, 10mM EGTA, pH= 7.2. For the measurements we used an amplifier […] and pClamp 11.2 software (MDS Analytical Technologies, Sunnyvale, CA, USA). The compounds were diluted the day of the experiments in external solutions and applied using a DAD-12 superfusion system with a 8-tube perfusion manifold (ALA Scientific Instruments, Farmingdale, NY, USA), guaranteeing rapid solution exchange. Current traces were filtered at 1 kHz and digitized at 10 kHz using a Digidata 1550 (MDS Analytical Technologies). […]

T1 sequence (P31645 whole entry): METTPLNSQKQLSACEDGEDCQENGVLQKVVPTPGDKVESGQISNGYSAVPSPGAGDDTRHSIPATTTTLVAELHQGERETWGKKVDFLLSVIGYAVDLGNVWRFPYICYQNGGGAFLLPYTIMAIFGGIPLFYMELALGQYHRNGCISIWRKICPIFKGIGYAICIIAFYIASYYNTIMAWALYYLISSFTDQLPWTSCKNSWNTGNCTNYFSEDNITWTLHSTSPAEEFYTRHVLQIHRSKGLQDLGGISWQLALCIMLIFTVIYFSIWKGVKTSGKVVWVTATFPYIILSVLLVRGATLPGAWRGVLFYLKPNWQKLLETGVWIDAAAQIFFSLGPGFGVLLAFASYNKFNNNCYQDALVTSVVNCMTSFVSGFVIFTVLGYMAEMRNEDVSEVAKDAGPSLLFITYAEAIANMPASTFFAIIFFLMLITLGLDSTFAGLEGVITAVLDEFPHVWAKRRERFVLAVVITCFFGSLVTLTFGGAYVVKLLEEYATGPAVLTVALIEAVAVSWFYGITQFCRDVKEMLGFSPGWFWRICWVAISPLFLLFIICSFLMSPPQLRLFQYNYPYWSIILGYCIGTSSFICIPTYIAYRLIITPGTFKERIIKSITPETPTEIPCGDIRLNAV
T3 sequence (P31645 whole entry): as above
T2 sequence (P23975 whole entry): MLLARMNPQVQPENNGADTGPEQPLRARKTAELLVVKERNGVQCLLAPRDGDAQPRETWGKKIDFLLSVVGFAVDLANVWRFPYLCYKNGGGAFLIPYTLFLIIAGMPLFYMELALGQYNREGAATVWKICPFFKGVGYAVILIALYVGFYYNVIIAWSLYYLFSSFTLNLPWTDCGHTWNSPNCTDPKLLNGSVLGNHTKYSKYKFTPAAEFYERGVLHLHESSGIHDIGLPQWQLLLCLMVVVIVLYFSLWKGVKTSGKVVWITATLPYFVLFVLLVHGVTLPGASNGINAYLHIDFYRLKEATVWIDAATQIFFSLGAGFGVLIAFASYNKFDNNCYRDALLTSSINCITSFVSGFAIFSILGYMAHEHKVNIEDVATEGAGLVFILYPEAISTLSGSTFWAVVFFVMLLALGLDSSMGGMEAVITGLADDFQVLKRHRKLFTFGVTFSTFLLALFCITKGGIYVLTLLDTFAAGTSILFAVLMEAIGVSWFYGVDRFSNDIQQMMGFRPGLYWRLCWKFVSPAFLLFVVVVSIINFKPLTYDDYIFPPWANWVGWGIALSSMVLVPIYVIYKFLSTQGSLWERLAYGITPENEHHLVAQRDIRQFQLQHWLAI

CCN(CC)c1ccc(-c2cc[n+]3c(-c4ccccc4)c(N4CCCC4)n(CCCCCCC(=O)NCc4ccc5c(c4)CO[C@@]5(CCCN(C)C)c4ccc(F)cc4)c3c2)cc1 [PYR-C6-CIT, PyrAte-C6-(S)-citalopram]
Brightness (at λmax) [1]: 27.0 103 M-1 cm-1
Stokes shift [1]: 87 nm
ε at λmax [1]: 39600 M⁻¹ cm⁻¹
λEm [1]: 493 nm
λmax [1]: 406 nm
Quantum yield [1]: 0.69
IC50 (YhSERT): 0.83 µM
selectivity to SERT vs. DAT (YhSERT): 2.5 fold
selectivity to SERT vs. NET (YhSERT): 15 fold
selectivity to SERT vs. OCT3 (YhSERT): 2.5 fold
decrease of SERT affinity (IC50) compared to (S)-citalopram (YhSERT): around 20 fold
Hill coefficient nH at SERT (YhSERT): −3.1
IC50 (hNET): 12.6 µM
Hill coefficient nH at NET (hNET): −1.3
membrane staining of mCherry-SERT HEK293 cells ([2]; 30 min incubation, blocked by 30 μM paroxetine): binds specifically to membrane-expressed SERT; also recorded: SERT-specific membrane staining
staining of mCherry-SERT HEK293 cells ([2]; 100 nM): mitochondrial staining

CCN(CC)c1ccc(-c2cc[n+]3c(-c4ccccc4)c(N4CCCC4)n(CCCC(=O)NCc4ccc5c(c4)CO[C@@]5(CCCN(C)C)c4ccc(F)cc4)c3c2)cc1 [PYR-C3-CIT, PyrAte-C3-(S)-citalopram]
Brightness (at λmax) [1]: 24.0 103 M-1 cm-1
Stokes shift [1]: 88 nm
ε at λmax [1]: 30000 M⁻¹ cm⁻¹
λEm [1]: 493 nm
λmax [1]: 405 nm
Quantum yield [1]: 0.82
IC50 (YhSERT): 0.4 µM
selectivity to SERT vs. DAT (YhSERT): around 10 fold
selectivity to SERT vs. NET (YhSERT): 27 fold
selectivity to SERT vs. OCT3 (YhSERT): 8.2 fold
decrease of SERT affinity (IC50) compared to (S)-citalopram (YhSERT): 10 fold
Hill coefficient nH at SERT (YhSERT): −3.0
IC50 (hNET): 10.9 µM
Hill coefficient nH at NET (hNET): −1.0
membrane staining of mCherry-SERT HEK293 cells ([2]; 60 min incubation, absent with paroxetine): enhanced co-localization of PyrAte and mCherrySERT signals and no internalization; also recorded: SERT-specific membrane staining
